In data set [1] the test system is RNR containing hRRM2 or p53R2. Kind of data set: In vitro RNR activity assay, both reconstituted RNRs compared (average, selective index, comparison in words). The format is biochemical, human. To be noted: for Selective index: M2/M1 versus p53R2/M1. How it is done: (§1) To reconstitute an active RNR, three 6′His-tag human RNR subunit proteins (hRRM2, p53R2, and hRRM1) were prokaryotically expressed, purified using Ni-resin affinity chromatography, and stored in 50 mM Tris-HCl, pH 7.4, 100 mM KCl at −70° C. according to standard techniques. The purified proteins were subjected to SDS-PAGE analysis. […] To reconstitute RNR, 1 μM of hRRM2 or p53R2 protein was incubated with 0.5 μM hRRM1 protein in multiple-well plates. The reconstitute RNR was tested for RNR activity according to standard techniques.
(§2) Each compound of various concentration was mixed with the purified hRRM2 and hRRM1, or p53R2 and hRRM1 at room temperature for 30 minutes. An enzymatic reaction buffer was then added to the mixture to reach a final volume of 100 μl and incubated at 37° C. for 30 minutes. The reaction buffer contained […] [^3H] CDP, 50 mM HEPES pH 7.2,6 mM DTT, 4 mM MgOAC, 2 mM ATP, 0.05 mM CDP, 100 mM KCl, and 0.24 mM NADPH. […] FeCl3 could be added to the buffer as an iron source. After dephosphorylation, the supernatant of each reaction mixture was analyzed by an HPLC-connected radioactivity detector. IC50 values were calculated by the non-linear regression equations: f (x)=(a-d)/[1+(x/c)^b]+d.
(§3) The above-described four SB-HSCs were tested for their inhibitory potency and subunit-selectivity by the in vitro RNR assay in the same manner descried above. The dose-dependent inhibition curves were found.

The target in data set [2] is T1, M2/M1 (hRRM2 and hRRM1 reconstituted RNR) (Homo sapiens, UniProt P31350).
T1 construct: 6xHis; made in house
T1 sequence (P31350 1-389): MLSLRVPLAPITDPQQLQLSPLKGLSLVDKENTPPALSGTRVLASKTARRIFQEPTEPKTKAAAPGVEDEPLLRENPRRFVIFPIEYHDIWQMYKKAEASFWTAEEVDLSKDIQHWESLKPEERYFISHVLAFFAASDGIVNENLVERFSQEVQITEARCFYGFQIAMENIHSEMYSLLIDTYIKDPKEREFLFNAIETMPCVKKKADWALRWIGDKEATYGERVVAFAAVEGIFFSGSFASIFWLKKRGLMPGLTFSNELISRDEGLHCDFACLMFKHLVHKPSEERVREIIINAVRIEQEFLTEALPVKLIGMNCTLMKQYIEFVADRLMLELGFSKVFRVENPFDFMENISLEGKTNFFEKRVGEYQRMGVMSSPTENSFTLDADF
Briefly: In vitro RNR activity assay with reconstituted hRRM2/hRRM1 ([3H]CDP reduction). It is filed as biochemical. Conditions: read-out: In vitro RR activity (IC50 ± sd) M2/M1. How it is done:
as §1, §2

In data set [3] the target is T2, p53R2/M1 (p53R2 and hRRM1 reconstituted RNR) (Homo sapiens, UniProt Q7LG56).
T2 construct: 6xHis; made in house
T2 sequence (Q7LG56 1-351): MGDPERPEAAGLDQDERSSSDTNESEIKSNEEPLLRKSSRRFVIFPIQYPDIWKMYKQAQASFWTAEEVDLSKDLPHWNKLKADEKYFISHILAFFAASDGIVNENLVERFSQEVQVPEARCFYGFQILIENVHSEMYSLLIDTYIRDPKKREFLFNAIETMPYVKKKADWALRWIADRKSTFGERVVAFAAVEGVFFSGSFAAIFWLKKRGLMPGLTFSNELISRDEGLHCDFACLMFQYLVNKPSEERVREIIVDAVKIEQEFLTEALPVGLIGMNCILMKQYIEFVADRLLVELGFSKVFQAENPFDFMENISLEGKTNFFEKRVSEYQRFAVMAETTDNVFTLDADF
Briefly: In vitro RNR activity assay with reconstituted p53R2/hRRM1 ([3H]CDP reduction). It is filed as biochemical. Conditions: read-out: In vitro RR activity (IC50 ± sd) p53R2/M1. The procedure:
as §1, §2

Data set [4] is described as follows: Standard cell-based assay. To be noted: read-out: Cell-based assay (IC50 ± sd).
In data set [5] the test system is T3, RNR containing hRRM2 or p53R2.
T3 construct: In vitro RR activity (IC50) Average; other: compound in 1% DMSO; average of M2/M1 and p53R2/M1; other: compound in 2.5% DMSO; other: compound in dH2O + FeCl3; other: compound in dH2O; Inhi; fused on or other part: 6xHis tag on each subunit
Kind of data set: In vitro RNR activity assay, both reconstituted RNRs compared (average, selective index, comparison in words). The format is biochemical, human. Conditions: average of M2/M1 and p53R2/M1, read-out: In vitro RR activity (IC50) Average. The procedure:
as §1, §2, §3

A further data set deals with T4, human RNR (Homo sapiens, UniProt P23921).
T4 sequence (P23921 1-792): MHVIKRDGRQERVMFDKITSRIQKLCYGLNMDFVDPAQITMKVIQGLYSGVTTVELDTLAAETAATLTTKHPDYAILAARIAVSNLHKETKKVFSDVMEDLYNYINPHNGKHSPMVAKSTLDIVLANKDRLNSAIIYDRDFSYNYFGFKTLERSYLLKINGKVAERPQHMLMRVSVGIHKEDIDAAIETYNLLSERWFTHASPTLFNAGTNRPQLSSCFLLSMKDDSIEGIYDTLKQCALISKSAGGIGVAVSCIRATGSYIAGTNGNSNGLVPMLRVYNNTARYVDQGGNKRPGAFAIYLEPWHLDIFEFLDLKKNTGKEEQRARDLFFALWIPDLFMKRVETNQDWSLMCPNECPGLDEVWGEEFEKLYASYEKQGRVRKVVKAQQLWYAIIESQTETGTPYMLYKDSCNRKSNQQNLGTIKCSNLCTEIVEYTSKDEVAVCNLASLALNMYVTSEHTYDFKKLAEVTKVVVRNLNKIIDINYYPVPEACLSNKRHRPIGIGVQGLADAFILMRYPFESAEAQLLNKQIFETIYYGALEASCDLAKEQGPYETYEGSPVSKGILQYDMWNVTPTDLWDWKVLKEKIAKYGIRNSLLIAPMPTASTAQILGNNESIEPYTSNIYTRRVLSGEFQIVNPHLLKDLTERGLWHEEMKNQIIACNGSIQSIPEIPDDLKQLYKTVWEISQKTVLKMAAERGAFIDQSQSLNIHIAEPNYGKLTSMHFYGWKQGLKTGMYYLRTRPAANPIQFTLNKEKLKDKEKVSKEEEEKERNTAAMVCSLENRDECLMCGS
Kind of data set: C-terminal RRM2 peptide added to the enzyme in vitro. It is filed as biochemical. To be noted: added in vitro at a ratio of 10:1 (peptide:enzyme). The text has this:
Also within the scope of this invention is a pharmaceutical composition that contains (1) an active agent, e.g., one of the above-descried antibodies, RNR mutant subunits, RNAi agents, or compounds identified to be RNR inhibitors; and (2) a pharmaceutically acceptable carrier and. Other active agents that can be used include an antisense oligonucleotide and a peptide or polypeptide containing an amino acid sequence at the C-terminus of RRM2. […] It was further observed that a truncated form of the M2 subunit, lacking these 7 amino acids at the C-terminus, fails to form a complex with the corresponding large subunit M1. […] Such peptides or polypeptides can be generated and used according to the methods described above or any other methods well known in the art. The efficacy of the pharmaceutical composition for treating a cell proliferation-associated disorder can be preliminarily evaluated in vitro. For in vivo studies, the composition can be injected into an animal and its therapeutic effects are then accessed.

Data set [6] concerns the target T5, hRRM1 (human ribonucleotide reductase large subunit M1).
T5 chain: T4 sequence (P23921 1-792)

Data set [7] has as its target T6, hRRM1 (human ribonucleotide reductase large subunit M1) (human, UniProt P23921 1-792).
T6 construct: also called R1 subunit
T6 sequence: T4 sequence (P23921 1-792)
Briefly: complex formation (method not described).

Read-outs that look alike come from different tables or passages of the source.

On to `C[S+](C)[O-]` [DMSO], for which the “Small subunit selectivity of RNR inhibition (in words)” value in data set [1] was “inhibited p53R2-containing-RNR more potently than hRRM2-containing RNR”.
Turning to `O=C(NO)NN=Cc1cc(Cl)cc(Cl)c1O` [SB-HSC2], the IC50 worked out at 111 ± 6.64 µM in data set [2] (compound in 2.5% DMSO), 30.6 ± 1.62 µM in data set [3] (compound in 2.5% DMSO), 6.5 ± 0.6 µM in data set [4] and 70.7 µM in data set [5] (compound in 2.5% DMSO). Further, in data set [1], the “Small subunit selectivity of RNR inhibition (in words)” value is “significantly more efficient in inactivating p53R2”. Moreover, the Selective index in data set [1] (compound in 2.5% DMSO) came to 3.62.
Take `O=C(NO)NN=Cc1ccc(O)c(O)c1O` [SB-HSC21]: the IC50 stood at 11.5 ± 0.63 µM in data set [2] (compound in 1% DMSO), 13.6 ± 0.7 µM in data set [3] (compound in 1% DMSO), 2.7 ± 0.6 µM in data set [4] and 12.5 µM in data set [5] (compound in 1% DMSO). Moreover, the “Small subunit selectivity of RNR inhibition (in words)” value in data set [1] is on record as “almost the same inhibitory activities on both small subunits”. The same molecule came in with a Selective index in data set [1] (compound in 1% DMSO) of 0.85.
On to `O=C(NO)NN=Cc1ccc([N+](=O)[O-])s1` [SB-HSC24], for which the IC50 was 52 ± 2.03 µM in data set [2] (compound in 2.5% DMSO), 11.5 ± 0.6 µM in data set [3] (compound in 2.5% DMSO), 10.6 ± 0.3 µM in data set [4] and 31.7 µM in data set [5] (compound in 2.5% DMSO). For the same molecule, in data set [1], the “Small subunit selectivity of RNR inhibition (in words)” value is reported as “significantly more efficient in inactivating p53R2”. In addition, in data set [1] (compound in 2.5% DMSO), the Selective index is given as 4.53.
Consider `Cc1c2ccccc2c(C=NNC(=O)NO)c2ccccc12` [SB-HSC29], for which the IC50 in data set [2] (compound in 2.5% DMSO) was over 250 µM; in data set [3] (compound in 2.5% DMSO), over 250 µM; in data set [4], 4.4 µM; in data set [5] (compound in 2.5% DMSO), over 250 µM.
On to `NNC(N)=O` [SC, semicarbazide, reference compound], for which the IC50 in data set [2] (compound in dH2O) was over 5000 µM; in data set [3] (compound in dH2O) it was over 5000 µM; in data set [4], over 2190 µM; in data set [5] (compound in dH2O), over 5000 µM.
As to “FTLDADF [7-amino acid peptide (FTLDADF) at the C-terminus of RRM2]”, in the data set with human RNR, the “Suppression of human RNR activity” value is given as “dramatically suppress the human RNR activity”.

B1: p53R2 (human ribonucleotide reductase small subunit p53R2) (protein)
chain: T2 sequence (Q7LG56 1-351)
For B1, the “RNR activity of reconstituted RNR” value in data set [6] is reported as “It was found it possessed RNR activity”.

B2: truncated form of the M2 subunit, lacking these 7 amino acids at the C-terminus (enzyme)
chain: MLSLRVPLAPITDPQQLQLSPLKGLSLVDKENTPPALSGTRVLASKTARRIFQEPTEPKTKAAAPGVEDEPLLRENPRRFVIFPIEYHDIWQMYKKAEASFWTAEEVDLSKDIQHWESLKPEERYFISHVLAFFAASDGIVNENLVERFSQEVQITEARCFYGFQIAMENIHSEMYSLLIDTYIKDPKEREFLFNAIETMPCVKKKADWALRWIGDKEATYGERVVAFAAVEGIFFSGSFASIFWLKKRGLMPGLTFSNELISRDEGLHCDFACLMFKHLVHKPSEERVREIIINAVRIEQEFLTEALPVKLIGMNCTLMKQYIEFVADRLMLELGFSKVFRVENPFDFMENISLEGKTNFFEKRVGEYQRMGVMSSPTENS
notes: also called truncated M2
Turning to B2, in data set [7], the binding result is “no binding”.

B3: hRRM2 (human ribonucleotide reductase small subunit M2) (protein)
chain: T1 sequence (P31350 1-389)
With B3, the “RNR activity of reconstituted RNR” value in data set [6] was “It was found it possessed RNR activity”.
